In brackets after ≈: the same amount, converted by molar mass. Like-named read-outs stand apart in the source and are kept apart here.
Key:
[1] = target: T1, S. aureus DNA gyrase (Staphylococcus aureus, UniProt P20831); assay: biochemical; type: biochemical; details: for LE DNA Gyrase S. aureus: LE = (1.37/HA) × pIC50; for IC50: fluorescence plate supercoiling assay, mean of two to four measurements
T1 construct: purchased Inspiralis (Norwich, UK)
Protocol: (§1) A Gyrase Supercoiling High Throughput Plate assay kit, purchased from Inspiralis (Norwich. UK) was used to determine IC50 values of compounds on S. aureus and E. coli. […] Biotinylated oligonucleotide in wash buffer was immobilized onto the wells, and the excess oligonucleotide was washed off with wash buffer and ultrapure water. […] The reactions were stopped by adding the TF buffer (50 mM NaOAc (pH 4.7), 50 mM NaCl, and 50 mM MgCl2) to allow the triplex formation (biotin-oligonucleotide-plasmid) for additional 30 min. Afterward, the unbound plasmid was washed off using TF buffer, and the solution of Promega Diamond dye in T10 buffer (10 mM Tris-HCl (pH 8.0), 1 mM EDTA) was added. […] IC50 value represents the mean of two to four independent measurements.

[2] = target: T2, E. coli Topo IV (Escherichia coli, UniProt P0AFI2); assay: Topo IV Relaxation High Throughput Plate assay, E. coli; type: biochemical; details: for LE Topo IV E. coli: LE = (1.37/HA) × pIC50
T2 construct: purchased Inspiralis (Norwich, UK)
T2 sequence (P0AFI2 whole entry): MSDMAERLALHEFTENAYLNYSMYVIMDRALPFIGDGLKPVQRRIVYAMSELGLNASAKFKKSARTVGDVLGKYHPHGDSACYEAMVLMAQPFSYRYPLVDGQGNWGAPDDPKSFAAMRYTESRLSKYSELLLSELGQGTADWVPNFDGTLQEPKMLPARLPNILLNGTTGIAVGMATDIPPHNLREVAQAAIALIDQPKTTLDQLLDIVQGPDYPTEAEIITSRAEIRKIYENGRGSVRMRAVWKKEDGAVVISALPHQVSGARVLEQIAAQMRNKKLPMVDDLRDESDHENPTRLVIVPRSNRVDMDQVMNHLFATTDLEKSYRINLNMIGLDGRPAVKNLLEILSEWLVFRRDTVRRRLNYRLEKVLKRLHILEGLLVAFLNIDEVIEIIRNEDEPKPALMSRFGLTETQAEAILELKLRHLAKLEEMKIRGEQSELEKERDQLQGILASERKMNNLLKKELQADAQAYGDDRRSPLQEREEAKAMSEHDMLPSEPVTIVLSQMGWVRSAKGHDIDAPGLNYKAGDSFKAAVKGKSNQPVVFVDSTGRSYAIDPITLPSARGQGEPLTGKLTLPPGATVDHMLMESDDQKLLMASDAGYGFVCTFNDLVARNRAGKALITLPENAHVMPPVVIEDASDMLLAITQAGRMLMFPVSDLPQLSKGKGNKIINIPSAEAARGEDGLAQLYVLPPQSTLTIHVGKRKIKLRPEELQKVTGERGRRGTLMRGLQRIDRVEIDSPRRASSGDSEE
T2 sequence (P20083 whole entry, further chain): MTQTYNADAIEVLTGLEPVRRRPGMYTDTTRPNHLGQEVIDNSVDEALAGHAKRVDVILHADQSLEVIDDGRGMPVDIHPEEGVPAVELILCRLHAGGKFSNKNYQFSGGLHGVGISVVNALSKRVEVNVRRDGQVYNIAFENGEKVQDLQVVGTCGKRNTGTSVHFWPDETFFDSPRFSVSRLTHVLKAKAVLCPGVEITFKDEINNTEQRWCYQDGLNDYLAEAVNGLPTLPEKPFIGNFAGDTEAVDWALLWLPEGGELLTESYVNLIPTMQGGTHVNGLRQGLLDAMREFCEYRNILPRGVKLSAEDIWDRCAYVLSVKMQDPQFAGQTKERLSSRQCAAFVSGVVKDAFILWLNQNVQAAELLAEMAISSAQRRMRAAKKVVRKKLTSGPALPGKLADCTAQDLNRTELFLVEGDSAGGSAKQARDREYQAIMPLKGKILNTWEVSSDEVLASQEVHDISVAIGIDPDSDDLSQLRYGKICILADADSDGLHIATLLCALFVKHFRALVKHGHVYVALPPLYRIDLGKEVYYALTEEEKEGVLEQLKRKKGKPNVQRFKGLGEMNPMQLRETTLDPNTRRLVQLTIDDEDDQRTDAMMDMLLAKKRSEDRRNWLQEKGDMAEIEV
Protocol: A Topo IV Relaxation High Throughput Plate assay kit, purchased from Inspiralis (Norwich. UK) was used to determine IC50 values of compounds on S. aureus and E. coli. […] Biotinylated oligonucleotide in wash buffer was immobilized onto the wells, and the excess oligonucleotide was washed off with wash buffer and ultrapure water. 1.5 U of S. aureus or E. coli […] enzyme was incubated together with 0.75 μg of supercoiled pNO1 plasmid as a substrate in the presence of 3 μL inhibitor solution in 10% DMSO and 0.008% Tween 20 at 37 °C for 30 min in a final reaction volume of 30 μL in dilution buffer (50 mM Tris-HCl (pH 7.5), 1 mM DTT, 1 mM EDTA, 40% (w/v) glycerol for S. aureus and 40 mM HEPES, KOH (pH 7.6), 100 mM potassium glutamate, 1 mM DTT, 1 mM EDTA, and 40% (v/v) glycerol for E. coli). The reactions were stopped by adding the TF buffer (50 mM NaOAc (pH 4.7), 50 mM NaCl, and 50 mM MgCl2) to allow the triplex formation (biotin-oligonucleotide-plasmid) for additional 30 min. Afterward, the unbound plasmid was washed off using TF buffer, and the solution of Promega Diamond dye in T10 buffer (10 mM Tris-HCl (pH 8.0), 1 mM EDTA) was added. […] IC50 value represents the mean of two to four independent measurements.

[3] = tested on: E. coli (QA-11.7); assay: MIC broth microdilution, E. coli QA-11.7; type: cell-based; details: Escherichia coli, 20 h; multi-resistant isolate (ampicillin, azithromycin, cefotaxime, ertapenem, imipenem and others); read-out: MIC E. coli (QA-11.7)
Protocol: (§2) Antimicrobial testing was carried out by the broth microdilution method in 96-well plate format following the Clinical and Laboratory Standards Institute (CLSI) guidelines and European Committee on Antimicrobial Susceptibility Testing (EUCAST) recommendations. Bacterial suspension of specific bacterial strain equivalent to 0.5 McFarland turbidity standard was diluted with cation-adjusted Mueller Hinton broth with TES (Thermo Fisher Diagnostic, Landsmeer, The Netherlands), to obtain a final inoculum of 10^5 CFU/mL. Compounds dissolved in DMSO and inoculum were mixed together and incubated for 18–20 h at 35 °C. Suspensions of Mycobacterium sp. were prepared into a tube of Middelbrook 7H9 broth supplemented with 5% OADC (Thermo Scientific, Trek Diagnostic Systems, West Sussex, UK) and incubated for at least 10 days. After incubation the minimal inhibitory concentration (MIC) values were determined by visual inspection as the lowest dilution of compounds showing no turbidity. Tetracycline was used as a positive control on every assay plate.

[4] = in vitro; details: for Papp at 4 h: PAMPA; for PAMPA permeability classification [low/high]: relative to reference drugs
Protocol: (§3) Prior to the measurements of solubility and permeability isocratic HPLC methods were developed. […] The individual method parameters for each compound are given in the Supplementary Materials Table S1.
A 96-well precoated three-layer PAMPA plates (Corning® Gentest™ Pre-coated PAMPA Plate System, Corning, NY, USA) were used according to the manufacturer’s instructions and as described previously with 300 µL of the donor solutions in the bottom compartment and 200 µL of the acceptor solution (pH 7.4 PBS) in the upper compartment at 37 °C and a 4-h incubation time. The initial and end donor solutions were injected at a 5 µL injection volume. The initial donor solutions were also diluted 100-fold and injected at a 100 µL injection volume to serve as external references for the end acceptor solutions which were injected at the same injection volume. The permeability calculations were made with a manufacturer-provided Excel spreadsheet directly from the measured peak areas accounting for the relevant dilutions and injection volumes.

[5] = tested on: S. pneumoniae (QA-10/02); assay: MIC broth microdilution, S. pneumoniae; type: cell-based; details: Streptococcus pneumoniae
Protocol: as §2

[6] = tested on: E. coli N43 (CGSC# 5583); assay: MIC broth microdilution, E. coli N43; type: cell-based; details: Escherichia coli
Protocol: as §2

[7] = Equilibrium solubility at pH 6.8; details: for solubility thermodynamic at 24 h: phosphate buffered saline, 37 °C, pH 6.8, aqueous buffer, thermodynamic from solid; for solubility at pH 6.8 in words: pH 6.8, single-dose in 500 mL
Protocol: as §3
The vials were then placed in a homogenizer (Next Advance Bullet Blender, Troy, NY, USA) for 5 min ad speed setting “2” after which they were kept in a thermostated shaker (Tehtnica HeatMix, Domel, Slovenia) at 37 °C and 1200 RPM for 24 h. […] Twenty µL of these solutions were injected for the HPLC analysis by the described methods (Supplementary Materials Table S1). External standards for calibration were made in a mobile phase with 5% acetonitrile in a range of 30–90 mg/L and injected at 20 µL injection volumes.

[8] = tested on: MRSA (QA-11.4); assay: MIC broth microdilution, MRSA QA-11.4; type: cell-based, methicillin-resistant S. aureus; details: Staphylococcus aureus, 20 h, resistant to cefoxitin, read-out: MIC MRSA (QA-11.4)
Protocol: as §2

[9] = target: T3, E. coli DNA gyrase (Escherichia coli, UniProt P0AES4); assay: Gyrase Supercoiling High Throughput Plate assay, E. coli; type: biochemical; details: for LE DNA Gyrase E. coli: LE = (1.37/HA) × pIC50
T3 construct: purchased Inspiralis (Norwich, UK)
T3 sequence (P0AES4 whole entry): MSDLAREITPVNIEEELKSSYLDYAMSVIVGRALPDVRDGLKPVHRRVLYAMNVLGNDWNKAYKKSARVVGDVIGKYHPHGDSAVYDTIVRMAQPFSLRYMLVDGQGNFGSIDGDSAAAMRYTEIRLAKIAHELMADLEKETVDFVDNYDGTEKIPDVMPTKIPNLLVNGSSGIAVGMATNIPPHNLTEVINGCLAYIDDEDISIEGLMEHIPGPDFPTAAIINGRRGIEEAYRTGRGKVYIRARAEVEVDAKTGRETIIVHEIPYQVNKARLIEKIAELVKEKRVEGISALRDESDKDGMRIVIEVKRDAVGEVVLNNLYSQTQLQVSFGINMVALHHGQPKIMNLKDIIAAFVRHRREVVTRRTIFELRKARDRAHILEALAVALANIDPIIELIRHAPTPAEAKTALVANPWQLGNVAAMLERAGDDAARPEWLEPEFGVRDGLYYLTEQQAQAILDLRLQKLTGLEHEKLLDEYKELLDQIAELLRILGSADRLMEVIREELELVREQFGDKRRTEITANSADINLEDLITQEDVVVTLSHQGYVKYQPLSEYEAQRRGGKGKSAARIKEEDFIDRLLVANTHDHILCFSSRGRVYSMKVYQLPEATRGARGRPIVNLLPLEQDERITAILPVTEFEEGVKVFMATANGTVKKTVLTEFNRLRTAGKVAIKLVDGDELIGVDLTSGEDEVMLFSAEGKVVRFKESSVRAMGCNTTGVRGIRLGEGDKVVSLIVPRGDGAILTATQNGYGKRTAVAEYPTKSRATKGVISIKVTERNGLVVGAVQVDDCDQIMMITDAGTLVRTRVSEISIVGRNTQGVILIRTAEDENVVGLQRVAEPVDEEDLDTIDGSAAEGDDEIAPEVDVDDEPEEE
Protocol: as §1

[10] = tested on: E. coli D22; assay: MIC broth microdilution, E. coli D22; type: cell-based; details: Escherichia coli, D22; mutation in the lpxC gene that increases membrane permeability; read-out: MIC E. coli D22
Protocol: as §2

[11] = tested on: S. aureus (ATCC 29213); assay: MIC broth microdilution, S. aureus ATCC 29213; type: cell-based; details: Staphylococcus aureus, ATCC29213
Protocol: as §2

[12] = tested on: MRSA (QA-11.2); assay: MIC broth microdilution, MRSA QA-11.2; type: cell-based, methicillin-resistant S. aureus; details: Staphylococcus aureus, 20 h, resistant to cefoxitin, chloramphenicol, clindamycin, linezolid, tetracycline, thiamulin, trimethoprim, read-out: MIC MRSA (QA-11.2)
Protocol: as §2

[13] = read-out: E. coli N43 MIC in molar
[14] = read-out: MIC E. coli N43 (CGSC# 5583)
[15] = S. aureus ATCC 29213, read-out: S. aureus MIC (converted)
[16] = read-out: MIC S. aureus (ATCC 29213)

T1 sequence (P20831 whole entry): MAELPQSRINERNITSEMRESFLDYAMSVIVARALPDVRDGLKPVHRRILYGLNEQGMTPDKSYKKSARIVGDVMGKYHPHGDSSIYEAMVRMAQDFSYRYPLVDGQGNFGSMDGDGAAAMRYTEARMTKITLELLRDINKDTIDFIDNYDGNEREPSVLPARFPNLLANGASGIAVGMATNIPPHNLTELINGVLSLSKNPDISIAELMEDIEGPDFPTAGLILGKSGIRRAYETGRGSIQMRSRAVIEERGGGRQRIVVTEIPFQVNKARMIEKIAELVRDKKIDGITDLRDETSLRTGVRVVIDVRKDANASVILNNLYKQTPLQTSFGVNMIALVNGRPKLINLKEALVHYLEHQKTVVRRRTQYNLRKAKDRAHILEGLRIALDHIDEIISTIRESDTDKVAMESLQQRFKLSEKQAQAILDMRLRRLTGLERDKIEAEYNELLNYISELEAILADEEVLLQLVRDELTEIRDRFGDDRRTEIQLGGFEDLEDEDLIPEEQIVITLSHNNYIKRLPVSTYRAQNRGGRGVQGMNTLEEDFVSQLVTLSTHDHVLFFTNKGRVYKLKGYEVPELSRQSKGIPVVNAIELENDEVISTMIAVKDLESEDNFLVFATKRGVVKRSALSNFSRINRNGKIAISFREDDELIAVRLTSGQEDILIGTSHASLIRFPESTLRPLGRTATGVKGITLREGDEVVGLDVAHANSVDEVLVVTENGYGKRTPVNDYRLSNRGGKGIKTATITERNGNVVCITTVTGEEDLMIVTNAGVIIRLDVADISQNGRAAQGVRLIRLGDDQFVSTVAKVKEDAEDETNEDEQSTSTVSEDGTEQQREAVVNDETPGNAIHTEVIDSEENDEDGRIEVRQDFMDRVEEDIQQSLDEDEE
T1 sequence (P0A0K8 whole entry partner): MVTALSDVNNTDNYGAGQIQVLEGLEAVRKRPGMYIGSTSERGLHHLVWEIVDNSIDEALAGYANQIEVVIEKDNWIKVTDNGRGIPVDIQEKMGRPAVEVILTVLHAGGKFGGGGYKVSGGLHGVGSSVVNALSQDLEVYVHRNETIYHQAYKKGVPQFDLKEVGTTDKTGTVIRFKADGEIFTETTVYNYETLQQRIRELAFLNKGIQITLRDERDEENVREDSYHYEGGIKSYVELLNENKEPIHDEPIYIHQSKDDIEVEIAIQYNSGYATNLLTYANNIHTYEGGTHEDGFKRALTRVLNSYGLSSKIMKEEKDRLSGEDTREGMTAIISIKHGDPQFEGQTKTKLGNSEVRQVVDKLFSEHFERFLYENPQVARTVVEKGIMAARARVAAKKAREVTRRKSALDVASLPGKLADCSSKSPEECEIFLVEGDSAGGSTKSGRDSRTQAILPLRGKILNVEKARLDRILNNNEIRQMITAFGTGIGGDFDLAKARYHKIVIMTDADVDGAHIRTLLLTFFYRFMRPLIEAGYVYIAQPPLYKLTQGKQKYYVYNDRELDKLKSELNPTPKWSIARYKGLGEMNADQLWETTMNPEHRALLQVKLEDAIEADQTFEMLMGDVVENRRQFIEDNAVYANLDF

Row | SMILES | LE DNA Gyrase S. aureus [1] | IC50 [1] | IC50 [2] | LE Topo IV E. coli [2] | MIC [3] | Papp at 4 h [4] | Papp at 4 h ([4]; pH 7.4) | MIC [5] | MIC [6, 13] | MIC [6, 14] | solubility thermodynamic at 24 h [7] | MIC [8] | IC50 [9] | LE DNA Gyrase E. coli [9] | MIC [10] | MIC [11, 15] | MIC [11, 16] | MIC [12] | solubility at pH 6.8 in words [7] | PAMPA permeability classification [low/high] [4]
1 | COc1ccc2nccc(CCN3CCC(NCc4cnn(-c5ccccc5)n4)CC3)c2n1 [Compound 8, 1-(2-(6-Methoxy-1,5-naphthyridin-4-yl)ethyl)-N-((2-phenyl-2H-1,2,3-triazol-4-yl)methyl)piperidin-4-amine] | 0.27 | 0.24 ± 0.04 µM | 0.21 µM | 0.28 | 4 µg/mL (≈ 9.02 µM) | > 2.7 ×10⁻⁶ cm/s | 10.6 ×10⁻⁶ cm/s | 0.25 µg/mL (≈ 0.564 µM) | 2.26 µM | 1 µg/mL | 106 µg/mL (≈ 239 µM) | 1 µg/mL (≈ 2.25 µM) | 7.83 ± 0.55 µM | 0.21 | 32 µg/mL (≈ 72.1 µM) | 1.13 µM | 0.5 µg/mL | 0.5 µg/mL (≈ 1.13 µM) |  | 
2 | COc1ccc2nccc(CCN3CCC(NCc4cnn(C(C)C)c4)CC3)c2n1 [Compound 9, N-((1-Isopropyl-1H-pyrazol-4-yl)methyl)-1-(2-(6-methoxy-1,5-naphthyridin-4-yl)ethyl)piperidin-4-amine] | 0.31 | 0.16 ± 0.01 µM | 0.23 µM | 0.30 | 2 µg/mL (≈ 4.9 µM) | > 2.7 ×10⁻⁶ cm/s | 3.3 ×10⁻⁶ cm/s | 0.5 µg/mL (≈ 1.22 µM) | 0.61 µM | 0.25 µg/mL | 7550 µg/mL (≈ 18500 µM) | 1 µg/mL (≈ 2.45 µM) | 2.95 ± 0.56 µM | 0.25 | 1 µg/mL (≈ 2.45 µM) | 0.31 µM | 0.125 µg/mL | 1 µg/mL (≈ 2.45 µM) | soluble at this pH in any conceivable single-dose | 
3 | C=CCn1cc(CNC2CCN(CCc3ccnc4ccc(OC)nc34)CC2)cn1 [Compound 10, N-((1-Allyl-1H-pyrazol-4-yl)methyl)-1-(2-(6-methoxy-1,5-naphthyridin-4-yl)ethyl)piperidin-4-amine] | 0.27 | 1.1 ± 0.17 µM | 0.28 ± 0.01 µM | 0.30 | 4 µg/mL (≈ 9.84 µM) | > 2.7 ×10⁻⁶ cm/s | 4.1 ×10⁻⁶ cm/s | 1 µg/mL (≈ 2.46 µM) | 2.46 µM | 1 µg/mL | 5700 µg/mL (≈ 14000 µM) | 4 µg/mL (≈ 9.84 µM) | 16.7 ± 0.93 µM | 0.22 | 8 µg/mL (≈ 19.7 µM) | 4.92 µM | 2 µg/mL | 4 µg/mL (≈ 9.84 µM) | soluble at this pH in any conceivable single-dose | 
4 | COc1ccc2nccc(CCN3CCC(NCc4ccccc4)CC3)c2n1 [Compound 11] | 0.29 |  | 2.04 ± 0.2 µM | 0.28 | 32 µg/mL (≈ 85 µM) | > 2.7 ×10⁻⁶ cm/s | 10.9 ×10⁻⁶ cm/s | 2 µg/mL (≈ 5.31 µM) | 21.2 µM | 8 µg/mL | 1370 µg/mL (≈ 3640 µM) | 8 µg/mL (≈ 21.2 µM) | 40.6 ± 1.97 µM | 0.21 | 16 µg/mL (≈ 42.5 µM) | 10.6 µM | 4 µg/mL | 8 µg/mL (≈ 21.2 µM) |  | 
5 | COc1ccc2nccc(CCN3CCC(NCc4ccc(F)cc4)CC3)c2n1 [Compound 12] | 0.30 |  | 0.28 ± 0.03 µM | 0.31 | 8 µg/mL (≈ 20.3 µM) | > 2.7 ×10⁻⁶ cm/s | 12.1 ×10⁻⁶ cm/s | 2 µg/mL (≈ 5.07 µM) | 10.1 µM | 4 µg/mL | 460 µg/mL (≈ 1170 µM) | 4 µg/mL (≈ 10.1 µM) | 17 ± 1.69 µM | 0.23 | 16 µg/mL (≈ 40.6 µM) | 2.54 µM | 1 µg/mL | 4 µg/mL (≈ 10.1 µM) |  | 
6 | COc1ccc2nccc(CCN3CCC(NCc4ccc(CO)cc4)CC3)c2n1 [Compound 16] | 0.24 | 4.39 ± 0.55 µM | 1.21 ± 0.05 µM | 0.27 | 32 µg/mL (≈ 78.7 µM) |  | 1.5 ×10⁻⁶ cm/s | 2 µg/mL (≈ 4.92 µM) | 39.4 µM | 16 µg/mL | 3390 µg/mL (≈ 8330 µM) | 8 µg/mL (≈ 19.7 µM) | 56.6 ± 3.32 µM | 0.19 | 16 µg/mL (≈ 39.4 µM) | 9.84 µM | 4 µg/mL | 8 µg/mL (≈ 19.7 µM) | soluble at this pH in any conceivable single-dose | int erm ediat e
7 | COc1ccc2nccc(CCN3CCC(NCc4ccc(C(N)=O)cc4)CC3)c2n1 [Compound 17] | 0.25 | 1.82 ± 0.11 µM | 1.15 ± 0.03 µM | 0.26 | 128 µg/mL (≈ 305 µM) |  | 0.31 ×10⁻⁶ cm/s | 16 µg/mL (≈ 38.1 µM) | 38.1 µM | 16 µg/mL | 560 µg/mL (≈ 1330 µM) | 8 µg/mL (≈ 19.1 µM) | > 100 µM |  | 128 µg/mL (≈ 305 µM) | 4.77 µM | 2 µg/mL | 8 µg/mL (≈ 19.1 µM) |  | low
8 | COc1ccc2nccc(CCN3CCC(NCc4ccc(N(C)C)cc4)CC3)c2n1 [Compound 18] | 0.32 |  | > 100 µM |  | 4 µg/mL (≈ 9.53 µM) | > 2.7 ×10⁻⁶ cm/s | 16.7 ×10⁻⁶ cm/s | 0.25 µg/mL (≈ 0.596 µM) | 2.45 µM | 1 µg/mL | 537 µg/mL (≈ 1280 µM) | 0.5 µg/mL (≈ 1.19 µM) | 11.9 ± 0.83 µM | 0.22 | 8 µg/mL (≈ 19.1 µM) | 0.31 µM |  | 0.5 µg/mL (≈ 1.19 µM) |  | 
